# Like-named read-outs stand apart in the source and are kept apart here.
# Columns and labels:
# Type in all cases: cell-based
# [1] = target: T1, human dopamine transporter/SLC6A3 (DAT) (Homo sapiens, UniProt Q01959); assay: Cellular uptake experiments: [3H]-dopamine reuptake inhibition in transporter-expressing HEK293 cells; settings: for IC50: cells stably expressing DAT, [3H]-dopamine 1 µM, screening cut-off 50 µM
# T1 construct: expressed in transfected cells; host or cells: HEK293
# Experimental: (§1) Cell culture. Human embryonic kidney (HEK) 293 or SK-N-MC (human neuroblastoma) cells were grown in minimum essential medium with Earle’s salts and L-glutamine, 10% heat-inactivated fetal bovine serum, and 50 mg/L gentamicin. Cells were grown in 100- or 60-mm diameter tissue culture dishes (polystyrene, Falcon) at 37 °C under an atmosphere of 5% CO2/95% air. The human dopamine transporter/SLC6A3 (DAT), noradrenaline transporter/SLC6A2 (NET), or human serotonin transporter/SLC6A4 (SERT) cDNA was stably expressed using methods as described previously.
# (§2) Cellular uptake experiments. The transporter-expressing HEK293 cells were seeded in poly-D-lysine-coated 24-well plates (1 × 10^5 cells/well) and, one day later, each well was washed with 0.5 mL uptake buffer and incubated with 0.5 mL buffer containing various concentrations of the drugs. Uptake was started by the addition of [^3H]-dopamine, [^3H]-noradrenaline, or [^3H]-serotonin at a final concentration of 1 µM (specific activity 0.14 Ci/mmol) after 5 min of preincubation. After incubation for 2.5 min (SERT-cells: 5 min) at 25 °C, it was stopped by aspirating the uptake buffer and washing each well twice with 1 mL ice-cold buffer. Nonspecific uptake was determined in the presence of 10 µM mazindol (DAT- and NET-cells) or 10 µM clomipramine (SERT-cells). The radioactivity remaining in each well was determined by incubating with 0.4 mL 1% sodium dodecyl sulphate and transferring this solution into scintillation vials containing 3 mL of scintillation cocktail (Ultima Gold MV, Packard, Dovners Grove, IL, USA). The uptake buffer consisted of (mmol/L): 4 Tris–HCl; 6.25 4-(2-hydroxyethyl)-1-piperazineethanesulfonic acid (HEPES); 120 NaCl; 5 KCl; 1.2 CaCl2; 1.2 MgSO4; 5.6 D-glucose; 0.5 ascorbic acid; pH 7.1.
# [2] = target: T2, noradrenaline transporter/SLC6A2 (NET) (Homo sapiens, UniProt P23975); assay: Cellular uptake experiments: [3H]-noradrenaline reuptake inhibition in transporter-expressing HEK293 cells
# T2 construct: expressed in transfected cells; host or cells: HEK293
# T2 sequence (P23975 whole entry): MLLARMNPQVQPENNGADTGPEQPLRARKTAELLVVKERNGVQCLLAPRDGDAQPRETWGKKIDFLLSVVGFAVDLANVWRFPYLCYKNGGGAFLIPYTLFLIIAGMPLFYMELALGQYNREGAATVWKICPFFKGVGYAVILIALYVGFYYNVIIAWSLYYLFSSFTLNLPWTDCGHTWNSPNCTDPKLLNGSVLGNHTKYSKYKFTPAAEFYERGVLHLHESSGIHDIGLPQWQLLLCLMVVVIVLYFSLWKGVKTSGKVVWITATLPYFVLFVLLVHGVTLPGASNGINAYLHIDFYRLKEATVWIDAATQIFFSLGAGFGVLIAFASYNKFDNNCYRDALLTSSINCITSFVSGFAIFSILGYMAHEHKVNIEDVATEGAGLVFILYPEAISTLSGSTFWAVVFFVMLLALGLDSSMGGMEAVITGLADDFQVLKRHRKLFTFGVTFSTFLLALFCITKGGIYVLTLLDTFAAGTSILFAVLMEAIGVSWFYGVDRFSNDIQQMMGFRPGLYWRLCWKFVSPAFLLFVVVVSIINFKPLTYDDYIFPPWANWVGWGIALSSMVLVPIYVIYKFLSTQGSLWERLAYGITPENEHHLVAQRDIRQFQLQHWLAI
# Experimental: as §1, §2
# [3] = target: T3, human serotonin transporter/SLC6A4 (SERT) (Homo sapiens, UniProt P31645); assay: Cellular uptake experiments: [3H]-serotonin reuptake inhibition in transporter-expressing HEK293 cells
# T3 construct: expressed in transfected cells; host or cells: HEK293
# T3 sequence (P31645 whole entry): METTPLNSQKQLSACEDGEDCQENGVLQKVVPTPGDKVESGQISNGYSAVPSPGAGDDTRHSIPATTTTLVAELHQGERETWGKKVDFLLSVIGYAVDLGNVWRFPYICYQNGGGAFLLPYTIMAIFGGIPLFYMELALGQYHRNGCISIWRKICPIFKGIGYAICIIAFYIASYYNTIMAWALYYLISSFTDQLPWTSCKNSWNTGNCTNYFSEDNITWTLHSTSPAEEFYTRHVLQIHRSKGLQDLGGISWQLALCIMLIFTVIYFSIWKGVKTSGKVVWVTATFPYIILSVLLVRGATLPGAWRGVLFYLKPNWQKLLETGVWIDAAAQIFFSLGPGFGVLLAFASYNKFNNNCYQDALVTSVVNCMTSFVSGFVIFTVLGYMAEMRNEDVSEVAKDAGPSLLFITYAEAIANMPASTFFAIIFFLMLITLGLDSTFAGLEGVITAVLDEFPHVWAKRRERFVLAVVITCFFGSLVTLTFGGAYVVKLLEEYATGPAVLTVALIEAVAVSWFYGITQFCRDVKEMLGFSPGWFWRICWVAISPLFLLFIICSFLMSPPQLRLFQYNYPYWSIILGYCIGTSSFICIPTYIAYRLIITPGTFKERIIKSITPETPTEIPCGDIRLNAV
# Experimental: as §1, §2
# [4] = Reuptake Inhibition (IC50 ± SE, µM) DAT
# [5] = Reuptake Inhibition (IC50 ± SE, µM) SERT, cells stably expressing SERT; [3H]-serotonin 1 µM; screening cut-off 50 µM
# [6] = Reuptake Inhibition (IC50 ± SE, µM) NET, cells stably expressing NET, [3H]-noradrenaline 1 µM, screening cut-off 50 µM
# [7] = read-out: Reuptake Inhibition (IC50 ± SE, µM) NET, cells stably expressing NET, [3H]-noradrenaline 1 µM, screening cut-off 50 µM
# [8] = read-out: Reuptake Inhibition (IC50 ± SE, µM) SERT; cells stably expressing SERT; [3H]-serotonin 1 µM; screening cut-off 50 µM
# [9] = read-out: Reuptake Inhibition (IC50 ± SE, µM) DAT
# [10] = cells stably expressing NET, [3H]-noradrenaline 1 µM, screening cut-off 50 µM, read-out: Reuptake Inhibition (IC50 ± SE, µM) NET
# [11] = cells stably expressing SERT; [3H]-serotonin 1 µM; screening cut-off 50 µM; read-out: Reuptake Inhibition (IC50 ± SE, µM) SERT
# [12] = at 50 µM / tested concentration range
# T1 sequence (Q01959 whole entry): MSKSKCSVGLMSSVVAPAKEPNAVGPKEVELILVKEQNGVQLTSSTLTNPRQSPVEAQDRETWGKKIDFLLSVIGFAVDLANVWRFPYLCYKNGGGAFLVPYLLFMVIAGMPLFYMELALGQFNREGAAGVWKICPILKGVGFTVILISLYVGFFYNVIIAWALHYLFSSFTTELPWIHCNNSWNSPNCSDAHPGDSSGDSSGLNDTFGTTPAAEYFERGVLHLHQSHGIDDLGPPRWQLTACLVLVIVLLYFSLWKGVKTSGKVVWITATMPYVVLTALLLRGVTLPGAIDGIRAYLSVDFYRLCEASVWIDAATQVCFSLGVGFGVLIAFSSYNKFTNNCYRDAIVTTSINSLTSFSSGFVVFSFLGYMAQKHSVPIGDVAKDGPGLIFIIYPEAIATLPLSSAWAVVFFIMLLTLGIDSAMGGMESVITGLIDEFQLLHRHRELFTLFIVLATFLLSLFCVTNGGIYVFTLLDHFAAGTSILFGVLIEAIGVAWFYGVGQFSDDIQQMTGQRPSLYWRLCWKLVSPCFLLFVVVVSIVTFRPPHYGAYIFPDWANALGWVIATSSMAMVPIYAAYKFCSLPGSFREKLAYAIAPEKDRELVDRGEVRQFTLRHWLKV
smiles,measurement,setting,value
"[O-][S@@+](Cc1cccs1)[C@H](c1ccccc1)c1cccc(Br)c1 [Compound 5h, (S,R)-2-((((3-bromophenyl)(phenyl)methyl)sulfinyl)methyl)thiophene]",IC50,[1]; [4],1.8 ± 0.4 µM
same,IC50,[2],> 50 µM
same,IC50,[3]; [5],> 50 µM
"[O-][S+](Cc1cccs1)C(c1ccc(F)cc1)c1ccc(Cl)cc1 (stereo not drawn) [Compound 5u, 2-((((4-chlorophenyl)(4-fluorophenyl)methyl)sulfinyl)methyl)thiophene]",IC50,[1]; [4],4.5 ± 1.8 µM
same,IC50,[2]; [6],> 50 µM
same,IC50,[3]; [5],> 50 µM
"[O-][S+](Cc1cccs1)C(c1ccc(F)cc1)c1ccc(Cl)cc1 (stereo not drawn) [Compound 7u, 2-((((4-chlorophenyl)(4-fluorophenyl)methyl)sulfinyl)methyl)thiophene]",IC50,[1]; [4],6.4 ± 0.4 µM
same,IC50,[2]; [7],> 50 µM
same,IC50,[3]; [8],> 50 µM
"[O-][S+](Cc1cccs1)C(c1ccccc1)c1cccc(I)c1 (stereo not drawn) [Compound 5j, 2-((((3-iodophenyl)(phenyl)methyl)sulfinyl)methyl)thiophene]",IC50,[1]; [4],2.09 ± 0.21 µM
same,IC50,[2]; [6],> 50 µM
same,IC50,[3]; [5],> 50 µM
"[O-][S@+](Cc1cccs1)[C@@H](c1ccccc1)c1ccccc1F [Compound 7a, (R,S)-2-((((2-fluorophenyl)(phenyl)methyl)sulfinyl)methyl)thiophene]",IC50,[1]; [9],8.25 ± 0.16 µM
same,IC50,[2]; [10],> 50 µM
same,IC50,[3]; [11],> 50 µM
"[O-][S+](Cc1cccs1)C(c1ccccc1)c1cccc(F)c1 (stereo not drawn) [Compound 8b, 2-((((3-fluorophenyl)(phenyl)methyl)sulfinyl)methyl)thiophene]",IC50,[1]; [9],9 ± 3 µM
same,IC50,[2]; [10],> 50 µM
same,IC50,[3]; [11],> 50 µM
"[O-][S@+](Cc1cccs1)[C@@H](c1ccccc1)c1ccccc1Cl [Compound 7d, (R,S)-2-((((2-chlorophenyl)(phenyl)methyl)sulfinyl)methyl)thiophene]","activity on DAT (reuptake inhibition), in words",[1]; at 50 µM,did not achieve ≥50% of radioligand displacement
same,IC50,[1]; [9],> 50 µM
same,"activity on NET (reuptake inhibition), in words",[2]; [12],did not achieve ≥50% of radioligand displacement
same,IC50,[2]; [10],> 50 µM
same,"activity on SERT (reuptake inhibition), in words",[3]; [12],did not achieve ≥50% of radioligand displacement
same,IC50,[3]; [11],> 50 µM
"Cc1cccc([C@H](c2ccccc2)[S@+]([O-])Cc2cccs2)c1 [Compound 6m, (R,S)-2-(((phenyl(m-tolyl)methyl)sulfinyl)methyl)thiophene]",IC50,[1]; [4],> 50 µM
same,IC50,[2]; [6],> 50 µM
same,IC50,[3]; [5],> 50 µM
"[O-][S+](Cc1cccs1)C(c1ccccc1)c1ccccc1I (stereo not drawn) [Compound 7i, 2-((((2-iodophenyl)(phenyl)methyl)sulfinyl)methyl)thiophene]",IC50,[1]; [4],28.4 ± 2.8 µM
same,IC50,[2]; [7],> 50 µM
same,IC50,[3]; [8],> 50 µM
"[O-][S+](Cc1cccs1)C(c1ccc(F)cc1)c1ccc(Cl)cc1 (stereo not drawn) [Compound 8u, 2-((((4-chlorophenyl)(4-fluorophenyl)methyl)sulfinyl)methyl)thiophene]",IC50,[1]; [4],5.4 ± 1 µM
same,IC50,[2]; [7],> 50 µM
same,IC50,[3]; [8],> 50 µM
"COc1ccccc1[C@@H](c1ccccc1)[S@@+]([O-])Cc1cccs1 [Compound 7r, (S,R)-2-((((2-methoxyphenyl)(phenyl)methyl)sulfinyl)methyl)thiophene]",IC50,[1]; [4],1.7 ± 0.1 µM
same,IC50,[2]; [6],> 50 µM
same,IC50,[3]; [5],> 50 µM
"[O-][S+](Cc1cccs1)C(c1ccccc1)c1ccc(F)cc1 (stereo not drawn) [Compound 6c, 2-((((4-fluorophenyl)(phenyl)methyl)sulfinyl)methyl)thiophene]",IC50,[1]; [9],10.1 ± 0.3 µM
same,IC50,[2]; [10],> 50 µM
same,IC50,[3]; [11],> 50 µM
"[O-][S@+](Cc1cccs1)[C@H](c1ccccc1)c1ccccc1F [Compound 5a, (R,R)-2-((((2-fluorophenyl)(phenyl)methyl)sulfinyl)methyl)thiophene]",IC50,[1]; [9],32.8 ± 0.2 µM
same,IC50,[2]; [10],> 50 µM
same,IC50,[3]; [11],> 50 µM
"[O-][S+](Cc1cccs1)C(c1ccc(F)cc1)c1ccc(Cl)cc1 (stereo not drawn) [Compound 6u, 2-((((4-chlorophenyl)(4-fluorophenyl)methyl)sulfinyl)methyl)thiophene]",IC50,[1]; [4],12 ± 2 µM
same,IC50,[2]; [7],> 50 µM
same,IC50,[3]; [8],> 50 µM
"COc1cccc(C(c2ccccc2)[S+]([O-])Cc2cccs2)c1 (stereo not drawn) [Compound 8s, 2-((((3-methoxyphenyl)(phenyl)methyl)sulfinyl)methyl)thiophene]",IC50,[1]; [4],> 50 µM
same,IC50,[2]; [7],> 50 µM
same,IC50,[3]; [5],> 50 µM
"Cc1ccccc1C(c1ccccc1)[S+]([O-])Cc1cccs1 (stereo not drawn) [Compound 8l, 2-(((phenyl(o-tolyl)methyl)sulfinyl)methyl)thiophene]",IC50,[1]; [9],9.5 ± 0.9 µM
same,IC50,[2]; [10],> 50 µM
same,IC50,[3]; [11],> 50 µM
"[O-][S+](Cc1cccs1)C(c1ccccc1)c1cccc(C(F)(F)F)c1 (stereo not drawn) [Compound 5p, 2-(((phenyl(3-(trifluoromethyl)phenyl)methyl)sulfinyl)methyl)thiophene]",IC50,[1]; [4],5 ± 1 µM
same,IC50,[2]; [6],> 50 µM
same,IC50,[3]; [5],> 50 µM
"[O-][S@@+](Cc1cccs1)[C@H](c1ccccc1)c1cccc(Cl)c1 [Compound 5e, (S,R)-2-((((3-chlorophenyl)(phenyl)methyl)sulfinyl)methyl)thiophene]",IC50,[1]; [4],3 ± 0.1 µM
same,IC50,[2]; [6],> 50 µM
same,IC50,[3]; [5],> 50 µM
"[O-][S+](Cc1cccs1)C(c1ccccc1)c1ccc(C(F)(F)F)cc1 (stereo not drawn) [Compound 6q, 2-(((phenyl(4-(trifluoromethyl)phenyl)methyl)sulfinyl)methyl)thiophene]",IC50,[1]; [4],40 ± 9 µM
same,IC50,[2]; [7],> 50 µM
same,IC50,[3]; [5],> 50 µM
"[O-][S@@+](Cc1cccs1)[C@@H](c1ccccc1)c1cccc(Cl)c1 [Compound 7e, (S,S)-2-((((3-chlorophenyl)(phenyl)methyl)sulfinyl)methyl)thiophene]",IC50,[1]; [4],0.63 ± 0.17 µM
same,IC50,[2]; [6],29 ± 4 µM
same,IC50,[3]; [5],> 50 µM
"COc1cccc(C(c2ccccc2)[S+]([O-])Cc2cccs2)c1 (stereo not drawn) [Compound 6s, 2-((((3-methoxyphenyl)(phenyl)methyl)sulfinyl)methyl)thiophene]",IC50,[1]; [4],5.41 ± 0.99 µM
same,IC50,[2]; [7],> 50 µM
same,IC50,[3]; [5],35 ± 3 µM
"Cc1ccc(C(c2ccccc2)[S+]([O-])Cc2cccs2)cc1 (stereo not drawn) [Compound 6n, 2-(((phenyl(p-tolyl)methyl)sulfinyl)methyl)thiophene]",IC50,[1]; [9],> 50 µM
same,IC50,[2]; [7],> 50 µM
same,IC50,[3]; [11],> 50 µM
"[O-][S@@+](Cc1cccs1)[C@H](c1ccccc1)c1ccc(Cl)cc1 [Compound 5f, (S,R)-2-((((4-chlorophenyl)(phenyl)methyl)sulfinyl)methyl)thiophene]",IC50,[1]; [4],12 ± 1 µM
same,IC50,[2]; [6],> 50 µM
same,IC50,[3]; [5],> 50 µM
"[O-][S+](Cc1cccs1)C(c1ccccc1)c1cccc(I)c1 (stereo not drawn) [Compound 7j, 2-((((3-iodophenyl)(phenyl)methyl)sulfinyl)methyl)thiophene]",IC50,[1]; [4],1.46 ± 0.06 µM
same,IC50,[2]; [7],> 50 µM
same,IC50,[3]; [8],> 50 µM
"[O-][S+](Cc1cccs1)C(c1ccccc1)c1cccc(I)c1 (stereo not drawn) [Compound 8j, 2-((((3-iodophenyl)(phenyl)methyl)sulfinyl)methyl)thiophene]",IC50,[1]; [4],1.5 ± 0.17 µM
same,IC50,[2]; [7],> 50 µM
same,IC50,[3]; [8],> 50 µM
"[O-][S+](Cc1cccs1)C(c1ccccc1)c1ccc(F)cc1 (stereo not drawn) [Compound 7c, 2-((((4-fluorophenyl)(phenyl)methyl)sulfinyl)methyl)thiophene]",IC50,[1]; [9],2.1 ± 0.6 µM
same,IC50,[2]; [10],> 50 µM
same,IC50,[3]; [11],> 50 µM
"COc1cccc(C(c2ccccc2)[S+]([O-])Cc2cccs2)c1 (stereo not drawn) [Compound 5s, 2-((((3-methoxyphenyl)(phenyl)methyl)sulfinyl)methyl)thiophene]",IC50,[1]; [4],2.89 ± 0.47 µM
same,IC50,[2]; [6],> 50 µM
same,IC50,[3]; [5],> 50 µM
"[O-][S@@+](Cc1cccs1)[C@@H](c1ccccc1)c1ccc(I)cc1 [Compound 7k, (S,S)-2-((((4-iodophenyl)(phenyl)methyl)sulfinyl)methyl)thiophene]",IC50,[1]; [4],> 50 µM
same,IC50,[2]; [6],> 50 µM
same,IC50,[3]; [5],> 50 µM
"[O-][S+](Cc1cccs1)C(c1ccccc1)c1cccc(F)c1 (stereo not drawn) [Compound 6b, 2-((((3-fluorophenyl)(phenyl)methyl)sulfinyl)methyl)thiophene]",IC50,[1]; [9],28 ± 7 µM
same,IC50,[2]; [10],> 50 µM
same,IC50,[3]; [11],> 50 µM
"Cc1ccccc1C(c1ccccc1)[S+]([O-])Cc1cccs1 (stereo not drawn) [Compound 6l, 2-(((phenyl(o-tolyl)methyl)sulfinyl)methyl)thiophene]",IC50,[1]; [9],> 50 µM
same,IC50,[2]; [10],> 50 µM
same,IC50,[3]; [11],> 50 µM
